Measured values reported in publication PMC9002265, “A New Series of Strigolactone Analogs Derived From Cinnamic Acids as Germination Inducers for Root Parasitic Plants” (Frontiers in Plant Science, 2022).

What was measured:
Type in all cases: biochemical
ShHTL7 [1] = biological target: T1, ShHTL7 (Striga hermonthica, UniProt A0A0M3PNA2); assay: YLG assay (inhibition of YLG hydrolysis) with recombinant ShHTL7; details: 1 h incubation, read-out: IC50 in YLG assay
T1 sequence (A0A0M3PNA2 1-271): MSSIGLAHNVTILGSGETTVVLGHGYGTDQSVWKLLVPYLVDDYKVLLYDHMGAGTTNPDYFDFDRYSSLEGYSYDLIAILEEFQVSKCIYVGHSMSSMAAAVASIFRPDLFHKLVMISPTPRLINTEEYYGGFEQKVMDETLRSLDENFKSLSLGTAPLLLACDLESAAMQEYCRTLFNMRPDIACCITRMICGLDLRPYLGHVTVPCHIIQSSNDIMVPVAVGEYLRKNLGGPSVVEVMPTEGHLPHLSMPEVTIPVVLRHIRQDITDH
Procedure: (§1) The ORF fragment of ShHTL6 and ShHTL7 was synthesized using IDT gBlock service. The PCR amplified ShHTL6 and ShHTL7 fragment was digested with Nco I and EcoR I, and the digested product was introduced into a modified pET28 vector with an N-terminal His8 tag. Escherichia coli BL21(DE3) was used for protein expression. The overnight culture (12 ml) was added to a fresh LB medium (1.2 L) containing kanamycin (50 mg/L) at 37°C. After OD600 reached 0.8, 0.1 mM IPTG was added and the cell was further incubated at 16°C for 21 h. The culture medium was centrifuged at 3700 g and the pellet was stored at −20°C until use. The pellet was resuspended and sonicated in a lysis buffer (50 mM Tris buffer (pH 8.0) containing 500 mM NaCl, 10 mM 2-mercaptoethanol, and 10% glycerol). The supernatant was purified by Ni Sepharose TM 6 Fast Flow (500 μl, Cytiva). After washing with the washing buffer (50 mM Tris buffer (pH 8.0) containing 500 mM NaCl and 20 mM imidazole), The bound protein was eluted with elution buffer (50 mM Tris buffer (pH 8.0) containing 500 mM NaCl and 200 mM imidazole). The eluate was concentrated using VIVASPIN Turbo 15 (Sartorius), and the concentration was adjusted to 5 mg/ml. The purified protein was aliquoted to the appropriate volume, immediately frozen in liquid nitrogen, and stored at −80°C until use.
(§2) After YLG was incubated with recombinant ShHTL6 or ShHTL7 for 1 h, the fluorescence was measured by spectraMax i5 (Molecular Devices) at excitation by 480 nm and detection by 520 nm. IC50 values were calculated using the online tool Quest GraphTM IC50 Calculator (AAT Bioquest, Inc., United States; https://www.aatbio.com/tools/ ic50-calculator).

ShHTL7 [2] = biological target: T1, ShHTL7; assay: Hydrolysis assay with recombinant ShHTL7; details: 10 μM substrate, 30°C, 60 min
Procedure: as §1
Hydrolysis assays were carried out at 30°C for 60 min in 100 μl of a reaction buffer containing 0.13 pmol recombinant ShHTL7 or AtD14, 10 μM of substrate in 50 mM Phosphate-Na buffer (pH 7.0) containing 2% acetone. The enzyme reaction was stopped by addition of 100 μl of acetonitrile containing 1-naphtaleneacetic acid (NAA; 0.5 ng/μl) as an internal standard. After centrifuged at 13,000 rpm for 5 min, each sample was subjected to LC–MS/MS analysis equipped with reverse-phase column (CORTECS UPLC Phenyl 1.6 μm, ϕ2.1 × 75 mm; Waters). The concentration of remaining substrate and reaction product was calculated by using NAA as an internal standard. Detailed information about the analytical condition is described in Supplementary Table 1.

ShHTL6 = biological target: T2, ShHTL6 (Striga hermonthica, UniProt A0A0M4AUV4); assay: YLG assay (inhibition of YLG hydrolysis) with recombinant ShHTL6
T2 sequence (A0A0M4AUV4 1-271): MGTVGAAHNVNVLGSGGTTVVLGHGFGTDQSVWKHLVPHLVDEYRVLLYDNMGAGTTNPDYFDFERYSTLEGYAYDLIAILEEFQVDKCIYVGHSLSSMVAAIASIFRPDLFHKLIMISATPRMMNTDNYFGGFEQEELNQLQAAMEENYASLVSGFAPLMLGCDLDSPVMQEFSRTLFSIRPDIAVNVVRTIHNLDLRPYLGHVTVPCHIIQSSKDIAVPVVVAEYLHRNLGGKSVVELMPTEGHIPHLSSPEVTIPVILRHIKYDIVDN
Procedure: as §1, §2

`CC1=CC(OC(=O)/C=C\c2ccccc2)OC1=O` (stereo not drawn) [c-CASL1] was tested, and the IC50 (ShHTL7 [1]) was 590 nM, the “hydrolysis by HTL7” value (ShHTL7 [2]) was “can hydrolyze” and the IC50 (ShHTL6) was 900 nM.
